Measured values published in ChEMBL document CHEMBL4393680, “Design, synthesis and biological evaluation of novel thioquinazolinone-based 2-aminobenzamide derivatives as potent histone deacetylase (HDAC) inhibitors” (Eur J Med Chem, 2019).

How the values were obtained:
HCT-116 [1] = assay: Antiproliferative activity against human HCT116 cells assessed as reduction in cell growth at 2 uM incubated for 72 hrs by CCK-8 assay relative to control; assay type: functional; conditions: HCT-116, 72 h
SMMC-7721 [2] = assay: Antiproliferative activity against human SMMC7721 cells assessed as reduction in cell growth at 2 uM incubated for 72 hrs by CCK-8 assay relative to control; assay type: functional; conditions: SMMC-7721, 72 h
A-375 [3] = assay: Antiproliferative activity against human A375 cells assessed as reduction in cell growth at 8 uM incubated for 72 hrs by CCK-8 assay relative to control; assay type: functional; conditions: A-375, 72 h
A549 [4] = assay: Antiproliferative activity against human A549 cells assessed as reduction in cell growth incubated for 72 hrs by CCK-8 assay; assay type: functional, cell-based; conditions: A549, 72 h
A549 [5] = assay: Antiproliferative activity against human A549 cells assessed as reduction in cell growth at 8 uM incubated for 72 hrs by CCK-8 assay relative to control; assay type: functional; conditions: A549, 72 h
A-375 [6] = assay: Antiproliferative activity against human A375 cells assessed as reduction in cell growth at 2 uM incubated for 72 hrs by CCK-8 assay relative to control; assay type: functional; conditions: A-375, 72 h
SMMC-7721 [7] = assay: Antiproliferative activity against human SMMC7721 cells assessed as reduction in cell growth at 8 uM incubated for 72 hrs by CCK-8 assay relative to control; assay type: functional; conditions: SMMC-7721, 72 h
HCT-116 [8] = assay: Antiproliferative activity against human HCT116 cells assessed as reduction in cell growth at 8 uM incubated for 72 hrs by CCK-8 assay relative to control; assay type: functional; conditions: HCT-116, 72 h
HeLa [9] = assay: Antiproliferative activity against human HeLa cells assessed as reduction in cell growth at 8 uM incubated for 72 hrs by CCK-8 assay relative to control; assay type: functional
HeLa [10] = assay: Antiproliferative activity against human HeLa cells assessed as reduction in cell growth at 2 uM incubated for 72 hrs by CCK-8 assay relative to control; assay type: functional
A549 [11] = assay: Antiproliferative activity against human A549 cells assessed as reduction in cell growth at 2 uM incubated for 72 hrs by CCK-8 assay relative to control; assay type: functional; conditions: A549, 72 h
SMMC-7721 [12] = assay: Antiproliferative activity against human SMMC7721 cells assessed as reduction in cell growth incubated for 72 hrs by CCK-8 assay; assay type: functional, cell-based; conditions: SMMC-7721, 72 h
A-375 [13] = assay: Antiproliferative activity against human A375 cells assessed as reduction in cell growth incubated for 72 hrs by CCK-8 assay; assay type: functional, cell-based; conditions: A-375, 72 h
HCT-116 [14] = assay: Antiproliferative activity against human HCT116 cells assessed as reduction in cell growth incubated for 72 hrs by CCK-8 assay; assay type: functional, cell-based; conditions: HCT-116, 72 h

IC50 (A549 [4])	IC50 (SMMC-7721 [12])	IC50 (A-375 [13])	IC50 (HCT-116 [14])	Structure (SMILES)	inhibition at 2 µM (HCT-116 [1])	inhibition at 2 µM (SMMC-7721 [2])	inhibition at 8 µM (A-375 [3])	inhibition at 8 µM (A549 [5])	inhibition at 2 µM (A-375 [6])	inhibition at 8 µM (SMMC-7721 [7])	inhibition at 8 µM (HCT-116 [8])	inhibition at 8 µM (HeLa [9])	inhibition at 2 µM (HeLa [10])	inhibition at 2 µM (A549 [11])
20 µM	–	–	–	COc1ccc2c(=O)n(CCCC[S+](C)[O-])c(SCc3ccc(/C=C/C(=O)Nc4ccccc4N)cc3)nc2c1 (stereo not given)	4.5%	3.1%	18.8%	62.7%	13.2%	9.9%	8.6%	41%	1.1%	53.8%
8.44 µM	2.67 µM	5.26 µM	3.06 µM	Cc1cccc2c(=O)n(C)c(SCc3ccc(C(=O)Nc4ccccc4N)cc3)nc12	42.7%	54.3%	54.9%	66.8%	48.3%	74.4%	76.4%	51.4%	47.3%	38%
